Reference: US20260242419A1, “A CYCLIC PEPTIDE FOR TRAPPING INTERLEUKIN-1 BETA” (Merck Sharp & Dohme LLC, priority 2023, published 2026)
Starred links: 1 amine or outer side, 2 acyl side, 3 side chain; linkers in the order of their positions; H or OH if unused. Non-standard residues stand in square brackets, D forms with d. Residues, ends and D or L forms follow the SMILES beside them. Trp(4-Cl)(βS-Me) = C[C@@H](c1c[nH]c2cccc(Cl)c12)[C@H](N)C(=O)O; dPro(4R-(4-pyridylmethyl)) = O=C(O)[C@H]1C[C@@H](Cc2ccncc2)CN1; Trp(βS-Me,4-F) = C[C@@H](c1c[nH]c2cccc(F)c12)[C@H](N)C(=O)O; Bip(4'-COOH) = N[C@@H](Cc1ccc(-c2ccc(C(=O)O)cc2)cc1)C(=O)O; Ala(1-bicyclo(1.1.1)pentyl) = N[C@@H](CC12CC(C1)C2)C(=O)O; dPro(4R-Bzl(4-F)) = O=C(O)[C@H]1C[C@@H](Cc2ccc(F)cc2)CN1; dPro(3S-(4-F-Bn)) = O=C(O)[C@@H]1NCC[C@@H]1Cc1ccc(F)cc1; X4 = O=C([C@H]1[C@@H](Cc2ccncc2)CCN1[*:1])[*:2]; Ala(morpholin-4-yl) = N[C@@H](CN1CCOCC1)C(=O)O; Ala(pyrimidin-5-yl) = N[C@@H](Cc1cncnc1)C(=O)O; Phe(4-CONH2) = NC(=O)c1ccc(C[C@H](N)C(=O)O)cc1; Phe(4-COOH) = N[C@@H](Cc1ccc(C(=O)O)cc1)C(=O)O; Bip = N[C@@H](Cc1ccc(-c2ccccc2)cc1)C(=O)O; Pro(cis-4-F) = O=C(O)[C@@H]1C[C@H](F)CN1; Ala(4-THP) = N[C@@H](CC1CCOCC1)C(=O)O; AEF = NCCOc1ccc(C[C@H](N)C(=O)O)cc1; cisHyp = O=C(O)[C@@H]1C[C@H](O)CN1; d(αMeD) = C[C@@](N)(CC(=O)O)C(=O)O; h4Pal = N[C@@H](CCc1ccncc1)C(=O)O; 4Pal = N[C@@H](Cc1ccncc1)C(=O)O; aThr = C[C@H](O)[C@H](N)C(=O)O; αMeD = C[C@](N)(CC(=O)O)C(=O)O; d(αMeS) = C[C@@](N)(CO)C(=O)O; NMeDab = CN[C@@H](CCN)C(=O)O; Dab = NCC[C@H](N)C(=O)O; Aib = CC(C)(N)C(=O)O

The compounds below were run against T1, IL-1β (Homo sapiens, UniProt P01584) (assay: IL-6 assay in MRC5 cells: inhibition of IL-1β induced IL-6 secretion (AlphaLISA)). Conditions: inhibition of IL-1β induced IL-6 secretion in MRC5 cells; compound pre-incubated 1 hour with recombinant human IL-1β; read-out: MRC5 IC50.
T1 construct: purchased BioLegend 579404
Type: cell-based
How it was run: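 Compound was pre-incubated 1 h at ambient temperature with recombinant human IL-1β at 2λ EC80 before adding human lung fibroblast MRC5 cells (3000/well) in EMEM with 0.025% BSA. After overnight culture at 37 °C, 5% CO2, secreted IL-6 in conditioned medium was measured by AlphaLISA; IC50 from 4-parameter logistic fits.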

T1 sequence (P01584 117-269): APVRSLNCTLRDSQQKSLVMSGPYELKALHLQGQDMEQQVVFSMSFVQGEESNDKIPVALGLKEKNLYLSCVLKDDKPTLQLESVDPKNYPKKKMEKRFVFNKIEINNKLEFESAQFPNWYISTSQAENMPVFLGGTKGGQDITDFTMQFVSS

Row | IC50 [nM] | SMILES
1 | 0.01 | C[C@@H](c1c[nH]c2cccc(F)c12)[C@@H]1NC(=O)[C@@H]2C[C@H](F)CN2C(=O)CNC(=O)[C@H](Cc2ccc(C(=O)O)cc2)NC(=O)[C@H](Cc2ccncc2)NC(=O)[C@H](Cc2ccc(-c3ccc(C(=O)O)cc3)cc2)NC(=O)[C@H]2[C@@H](Cc3ccc(F)cc3)CCN2C(=O)CNC(=O)[C@H](CCN)NC(=O)[C@H](CCC(N)=O)NC(=O)[C@H](CN2CCOCC2)NC(=O)[C@@](C)(CC(=O)O)NC(=O)[C@H](Cc2c[nH]c3ccccc23)NC(=O)[C@H](CO)NC(=O)C(C)(C)NC1=O [Example 286] (cyclo([Bip(4'-COOH)][4Pal][Phe(4-COOH)]G[Pro(cis-4-F)][Trp(βS-Me,4-F)][Aib]SW[d(αMeD)][Ala(morpholin-4-yl)]Q[Dab]G[dPro(3S-(4-F-Bn))]))
2 | 0.022 | C[C@@H](c1c[nH]c2cccc(F)c12)[C@@H]1NC(=O)[C@@H]2C[C@H](F)CN2C(=O)CNC(=O)[C@H](Cc2ccc(C(=O)O)cc2)NC(=O)[C@H](Cc2ccncc2)NC(=O)[C@H](Cc2ccc(-c3ccccc3)cc2)NC(=O)[C@H]2C[C@@H](Cc3ccncc3)CN2C(=O)CNC(=O)[C@H](CCN)NC(=O)[C@H](CCC(N)=O)NC(=O)[C@@H](CC(=O)O)NC(=O)C(C)(C)NC(=O)[C@H](Cc2c[nH]c3ccccc23)NC(=O)[C@H](CO)NC(=O)C(C)(C)NC1=O [Example 265] (cyclo([Bip][4Pal][Phe(4-COOH)]G[Pro(cis-4-F)][Trp(βS-Me,4-F)][Aib]SW[Aib][dD]Q[Dab]G[dPro(4R-(4-pyridylmethyl))]))

Same assay, conditions: inhibition of IL-1β induced IL-6 secretion in MRC5 cells; read-out: MRC5 IC50

Row | SMILES | IC50 [nM]
3 | CC(C)[C@@H]1NC(=O)[C@](C)(CC(=O)O)NC(=O)[C@H](Cc2c[nH]c3ccccc23)NC(=O)[C@H](CO)NC(=O)C(C)(C)NC(=O)[C@H]([C@@H](C)c2c[nH]c3cccc(F)c23)NC(=O)[C@@H]2C[C@H](F)CN2C(=O)CNC(=O)[C@H](Cc2ccc(C(=O)O)cc2)NC(=O)[C@H](CC23CC(C2)C3)NC(=O)[C@H](Cc2ccc(-c3ccc(C(=O)O)cc3)cc2)NC(=O)[C@H]2C[C@@H](Cc3ccncc3)CN2C(=O)CNC(=O)[C@H](CCN)NC(=O)[C@H](CCC(N)=O)NC1=O [Example 203] (cyclo([Bip(4'-COOH)][Ala(1-bicyclo(1.1.1)pentyl)][Phe(4-COOH)]G[Pro(cis-4-F)][Trp(βS-Me,4-F)][Aib]SW[αMeD]VQ[Dab]G[dPro(4R-(4-pyridylmethyl))])) | 0.016
4 | CC(=O)NCCOc1ccc(C[C@@H]2NC(=O)[C@H]3C[C@@H](Cc4ccc(F)cc4)CN3C(=O)CNC(=O)[C@H](CCN)NC(=O)[C@H](CCC(N)=O)NC(=O)[C@H](Cc3cncnc3)NC(=O)C(C)(C)NC(=O)[C@H](Cc3c[nH]c4ccccc34)NC(=O)[C@H](CCC(=O)O)NC(=O)C(C)(C)NC(=O)[C@H]([C@@H](C)c3c[nH]c4cccc(F)c34)NC(=O)[C@@H]3C[C@H](F)CN3C(=O)CNC(=O)[C@H](Cc3ccc(C(=O)O)cc3)NC(=O)[C@H](Cc3ccncc3)NC2=O)cc1 [Example 10] (cyclo([AEF](Ac)[4Pal][Phe(4-COOH)]G[Pro(cis-4-F)][Trp(βS-Me,4-F)][Aib]EW[Aib][Ala(pyrimidin-5-yl)]Q[Dab]G[dPro(4R-Bzl(4-F))])) | 0.027
5 | C[C@@H](c1c[nH]c2cccc(F)c12)[C@@H]1NC(=O)[C@@H]2C[C@H](F)CN2C(=O)CNC(=O)[C@H](Cc2ccc(C(=O)O)cc2)NC(=O)[C@H](Cc2ccncc2)NC(=O)[C@H](Cc2ccc(-c3ccc(C(=O)O)cc3)cc2)NC(=O)[C@H]2C[C@@H](Cc3ccc(F)cc3)CN2C(=O)CNC(=O)[C@H](CCN)NC(=O)[C@H](CCC(N)=O)NC(=O)[C@H](Cc2cncnc2)NC(=O)[C@@](C)(CO)NC(=O)[C@H](Cc2c[nH]c3ccccc23)NC(=O)[C@H](CCC(=O)O)NC(=O)C(C)(C)NC1=O [Example 23] (cyclo([Bip(4'-COOH)][4Pal][Phe(4-COOH)]G[Pro(cis-4-F)][Trp(βS-Me,4-F)][Aib]EW[d(αMeS)][Ala(pyrimidin-5-yl)]Q[Dab]G[dPro(4R-Bzl(4-F))])) | 0.018
6 | C[C@@H](c1c[nH]c2cccc(F)c12)[C@@H]1NC(=O)[C@@H]2C[C@H](F)CN2C(=O)CNC(=O)[C@H](Cc2ccc(C(=O)O)cc2)NC(=O)[C@H](CC23CC(C2)C3)NC(=O)[C@H](Cc2ccc(-c3ccc(C(=O)O)cc3)cc2)NC(=O)[C@H]2C[C@@H](Cc3ccncc3)CN2C(=O)CNC(=O)[C@H](CO)NC(=O)[C@H](CCC(N)=O)NC(=O)[C@H](CN2CCOCC2)NC(=O)C(C)(C)NC(=O)[C@H](Cc2c[nH]c3ccccc23)NC(=O)[C@H](CO)NC(=O)C(C)(C)NC1=O [Example 179] (cyclo([Bip(4'-COOH)][Ala(1-bicyclo(1.1.1)pentyl)][Phe(4-COOH)]G[Pro(cis-4-F)][Trp(βS-Me,4-F)][Aib]SW[Aib][Ala(morpholin-4-yl)]QSG[dPro(4R-(4-pyridylmethyl))])) | 0.029
7 | C[C@@H](c1c[nH]c2cccc(F)c12)[C@@H]1NC(=O)[C@@H]2C[C@H](O)CN2C(=O)CNC(=O)[C@H](Cc2ccc(C(=O)O)cc2)NC(=O)[C@H](CC23CC(C2)C3)NC(=O)[C@H](Cc2ccc(-c3ccc(C(=O)O)cc3)cc2)NC(=O)[C@H]2C[C@@H](Cc3ccncc3)CN2C(=O)CNC(=O)[C@H](CCN)NC(=O)[C@H](CCC(N)=O)NC(=O)[C@H](Cc2cncnc2)NC(=O)[C@@](C)(CO)NC(=O)[C@H](Cc2c[nH]c3ccccc23)NC(=O)[C@H](CO)NC(=O)C(C)(C)NC1=O [Example 190] (cyclo([Bip(4'-COOH)][Ala(1-bicyclo(1.1.1)pentyl)][Phe(4-COOH)]G[cisHyp][Trp(βS-Me,4-F)][Aib]SW[d(αMeS)][Ala(pyrimidin-5-yl)]Q[Dab]G[dPro(4R-(4-pyridylmethyl))])) | 0.019
8 | C[C@@H](c1c[nH]c2cccc(F)c12)[C@@H]1NC(=O)[C@@H]2C[C@H](F)CN2C(=O)CNC(=O)[C@H](Cc2ccc(C(=O)O)cc2)NC(=O)[C@H](CC23CC(C2)C3)NC(=O)[C@H](Cc2ccc(-c3ccc(C(=O)O)cc3)cc2)NC(=O)[C@H]2C[C@@H](Cc3ccncc3)CN2C(=O)CNC(=O)[C@H](CCN)NC(=O)[C@H](CCC(N)=O)NC(=O)[C@H](Cc2cncnc2)NC(=O)[C@@](C)(CO)NC(=O)[C@H](Cc2c[nH]c3ccccc23)NC(=O)[C@H](CO)NC(=O)C(C)(C)NC1=O [Example 112] (cyclo([Bip(4'-COOH)][Ala(1-bicyclo(1.1.1)pentyl)][Phe(4-COOH)]G[Pro(cis-4-F)][Trp(βS-Me,4-F)][Aib]SW[d(αMeS)][Ala(pyrimidin-5-yl)]Q[Dab]G[dPro(4R-(4-pyridylmethyl))])) | 0.018
9 | CCO[C@@H](C)[C@@H]1NC(=O)C(C)(C)NC(=O)[C@H](Cc2c[nH]c3ccccc23)NC(=O)[C@H](CO)NC(=O)C(C)(C)NC(=O)[C@H]([C@@H](C)c2c[nH]c3cccc(F)c23)NC(=O)[C@@H]2C[C@H](F)CN2C(=O)CNC(=O)[C@H](Cc2ccc(C(N)=O)cc2)NC(=O)[C@H](Cc2ccncc2)NC(=O)[C@H](Cc2ccc(OCCNC(C)=O)cc2)NC(=O)[C@H]2C[C@@H](Cc3ccncc3)CN2C(=O)CNC(=O)[C@H](CCN)N(C)C(=O)[C@H](CCC(N)=O)NC1=O [Example 381] (cyclo([4Pal][Phe(4-CONH2)]G[Pro(cis-4-F)][Trp(βS-Me,4-F)][Aib]SW[Aib][aThr](Et)Q[NMeDab]G[dPro(4R-(4-pyridylmethyl))][AEF](Ac))) | 0.041

Further lines, results first:

Row | IC50 [nM] | SMILES
10 | 0.023 | CC(=O)NCCOc1ccc(C[C@@H]2NC(=O)[C@H]3C[C@@H](Cc4ccncc4)CN3C(=O)CNC(=O)[C@H](CCN)NC(=O)[C@H](CCC(N)=O)NC(=O)[C@H](CC3CCOCC3)NC(=O)[C@@](C)(CC(=O)O)NC(=O)[C@H](Cc3c[nH]c4ccccc34)NC(=O)[C@H](CO)NC(=O)C(C)(C)NC(=O)[C@H]([C@@H](C)c3c[nH]c4cccc(Cl)c34)NC(=O)[C@@H]3C[C@H](F)CN3C(=O)CNC(=O)[C@H](Cc3ccc(C(=O)O)cc3)NC(=O)[C@H](Cc3ccncc3)NC2=O)cc1 [Example 362] (cyclo([AEF](Ac)[4Pal][Phe(4-COOH)]G[Pro(cis-4-F)][Trp(4-Cl)(βS-Me)][Aib]SW[d(αMeD)][Ala(4-THP)]Q[Dab]G[dPro(4R-(4-pyridylmethyl))]))
11 | 0.02 | C[C@@H](c1c[nH]c2cccc(F)c12)[C@@H]1NC(=O)[C@@H]2C[C@H](F)CN2C(=O)CNC(=O)[C@H](Cc2ccc(C(=O)O)cc2)NC(=O)[C@H](Cc2ccncc2)NC(=O)[C@H](Cc2ccc(-c3ccc(C(=O)O)cc3)cc2)NC(=O)[C@H]2[C@@H](Cc3ccncc3)CCN2C(=O)CNC(=O)[C@H](CCN)NC(=O)[C@H](CCC(N)=O)NC(=O)[C@H](CCc2ccncc2)NC(=O)[C@@](C)(CC(=O)O)NC(=O)[C@H](Cc2c[nH]c3ccccc23)NC(=O)[C@H](CO)NC(=O)C(C)(C)NC1=O [Example 222] (cyclo([Bip(4'-COOH)][4Pal][Phe(4-COOH)]G[Pro(cis-4-F)][Trp(βS-Me,4-F)][Aib]SW[d(αMeD)][h4Pal]Q[Dab]G[X4]))
12 | 0.017 | C[C@@H](c1c[nH]c2cccc(F)c12)[C@@H]1NC(=O)[C@@H]2C[C@H](F)CN2C(=O)CNC(=O)[C@H](Cc2ccc(C(=O)O)cc2)NC(=O)[C@H](Cc2ccncc2)NC(=O)[C@H](Cc2ccc(-c3ccc(C(=O)O)cc3)cc2)NC(=O)[C@H]2C[C@@H](Cc3ccc(F)cc3)CN2C(=O)CNC(=O)[C@H](CCN)NC(=O)[C@H](CCC(N)=O)NC(=O)[C@H](CN2CCOCC2)NC(=O)[C@@](C)(CC(=O)O)NC(=O)[C@H](Cc2c[nH]c3ccccc23)NC(=O)[C@H](CO)NC(=O)C(C)(C)NC1=O [Example 319] (cyclo([Bip(4'-COOH)][4Pal][Phe(4-COOH)]G[Pro(cis-4-F)][Trp(βS-Me,4-F)][Aib]SW[d(αMeD)][Ala(morpholin-4-yl)]Q[Dab]G[dPro(4R-Bzl(4-F))]))
